The values that follow come from ChEMBL document CHEMBL5365492 (J Med Chem, 2023).

Square brackets hold non-standard residues; d marks the D form. Peptide text beside a SMILES is read from it. NMeL = CN[C@@H](CC(C)C)C(=O)O; NMeV = CN[C@H](C(=O)O)C(C)C; Nva = CCC[C@H](N)C(=O)O; Sar = CNCC(=O)O

Data set [1] in a line: 1,9-decadiene-water partition coefficient, logD of compound at pH 7.4 at 10 uM incubated for 30 mins by LC-MS analysis. The class given is physicochemical.
Data set [2] can be described thus: Permeability in human Caco-2 cells at 10 uM incubated for 2 hrs by LC-MS analysis. The class given is ADME, cell-based. The note with it: read-out: permeability. A general note: Caco-2 cells form a polarised layer with tight junctions and transporters.
A short description of data set [3]: Permeability of compound at 10 uM incubated for 18 hrs by PAMPA assay. The note with it: read-out: permeability. It is filed as ADME. A general note: The PAMPA barrier holds no transporters, so it reflects passive diffusion.

In data set [1], `C/C=C/C[C@@H](C)[C@@H](OC(C)=O)[C@H]1C(=O)N[C@@H](CC)C(=O)N(C)CC(=O)N(C)[C@@H](CC(C)C)C(=O)N[C@@H](C(C)C)C(=O)N(C)[C@@H](CC(C)C)C(=O)N[C@@H](C)C(=O)N[C@H](C)C(=O)N(C)[C@@H](CC(C)C)C(=O)N(C)[C@@H](CC(C)C)C(=O)N(C)[C@@H](C(C)C)C(=O)N1C` returned a logD hydrocarbon water at 0.5 h, 10 µM of 5.17.
Consider `CCC[C@@H]1NC(=O)[C@H](CC)N(C)C(=O)[C@H](C(C)C)N(C)C(=O)[C@H](CC(C)C)N(C)C(=O)[C@H](CC(C)C)N(C)C(=O)[C@@H](C)NC(=O)[C@H](C)NC(=O)[C@H](CC(C)C)N(C)C(=O)[C@H](C(C)C)NC(=O)[C@H](CC(C)C)N(C)C(=O)CN(C)C1=O`, for which, in data set [1], the logD hydrocarbon water at 0.5 h, 10 µM amounted to 3.58. Besides, in data set [2], the Papp at 2 h, 10 µM turned out to be 6.4 ×10⁻⁶ cm/s. For the same compound, in data set [3], the Papp at 18 h, 10 µM is 2 ×10⁻⁶ cm/s.
For the compound `CCC[C@@H]1NC(=O)[C@H]([C@@H](C)O)N(C)C(=O)[C@H](C(C)C)NC(=O)[C@H](CC(C)C)N(C)C(=O)[C@H](CC(C)C)N(C)C(=O)[C@@H](C)NC(=O)[C@H](C)NC(=O)[C@H](CC(C)C)N(C)C(=O)[C@H](C(C)C)NC(=O)[C@H](CC(C)C)N(C)C(=O)CN(C)C1=O`, the logD hydrocarbon water at 0.5 h, 10 µM in data set [1] stood at 3.12. The Papp at 2 h, 10 µM in data set [2] came out at 8.7 ×10⁻⁶ cm/s. The Papp at 18 h, 10 µM in data set [3] came out at 0.8 ×10⁻⁶ cm/s.
In turn, `CCC[C@@H]1NC(=O)[C@H]([C@@H](C)O)N(C)C(=O)[C@H](CC(C)C)NC(=O)[C@H](CC(C)C)N(C)C(=O)[C@H](CC(C)C)N(C)C(=O)[C@@H](C)NC(=O)[C@H](C)NC(=O)[C@H](CC(C)C)N(C)C(=O)[C@H](C(C)C)NC(=O)[C@H](CC(C)C)N(C)C(=O)CN(C)C1=O` registered a logD hydrocarbon water at 0.5 h, 10 µM in data set [1] of 2.52. Further, the Papp at 2 h, 10 µM in data set [2] amounted to 2.6 ×10⁻⁶ cm/s. For the same compound, the Papp at 18 h, 10 µM in data set [3] stood at 7.7 ×10⁻⁶ cm/s.
The compound `CCC[C@@H]1NC(=O)[C@H]([C@@H](C)O)N(C)C(=O)[C@H](C)NC(=O)[C@H](CC(C)C)N(C)C(=O)[C@H](CC(C)C)N(C)C(=O)[C@@H](C)NC(=O)[C@H](C)NC(=O)[C@H](CC(C)C)N(C)C(=O)[C@H](C(C)C)NC(=O)[C@H](CC(C)C)N(C)C(=O)CN(C)C1=O` came in with a logD hydrocarbon water at 0.5 h, 10 µM in data set [1] of 1.45. Besides, in data set [2], the Papp at 2 h, 10 µM came to 0.3 ×10⁻⁶ cm/s. Further, the Papp at 18 h, 10 µM in data set [3] turned out to be 0.3 ×10⁻⁶ cm/s.
In data set [1], `CCC[C@@H]1NC(=O)[C@H]([C@@H](C)O)N(C)C(=O)[C@H](C(C)C)N(C)C(=O)CN(CC[N+](CC)(CC)CC)C(=O)[C@H](CC(C)C)N(C)C(=O)[C@@H](C)NC(=O)[C@H](C)NC(=O)[C@H](CC(C)C)N(C)C(=O)[C@H](C(C)C)NC(=O)[C@H](CC(C)C)N(C)C(=O)CN(C)C1=O.O=C([O-])C(F)(F)F` gave a logD hydrocarbon water at 0.5 h, 10 µM of -2.44. In addition, the Papp at 2 h, 10 µM in data set [2] turned out to be 0.35 ×10⁻⁶ cm/s.
In data set [1], `CCC[C@@H]1NC(=O)[C@H]([C@H](O)C(C)C)N(C)C(=O)[C@H](C(C)C)N(C)C(=O)[C@H](CC(C)C)N(C)C(=O)[C@H](CC(C)C)N(C)C(=O)[C@@H](C)NC(=O)[C@H](C)NC(=O)[C@H](CC(C)C)N(C)C(=O)[C@H](C(C)C)NC(=O)[C@H](CC(C)C)N(C)C(=O)CN(C)C1=O` had a logD hydrocarbon water at 0.5 h, 10 µM of 3.35. For the same compound, the Papp at 2 h, 10 µM in data set [2] came out at 18.6 ×10⁻⁶ cm/s. Further, the Papp at 18 h, 10 µM in data set [3] stood at 9.2 ×10⁻⁶ cm/s.
`CCC[C@@H]1NC(=O)[C@H]([C@@H](C)O)N(C)C(=O)[C@H](C(C)C)N(C)C(=O)CN(CCN(C(C)C)C(C)C)C(=O)[C@H](CC(C)C)N(C)C(=O)[C@@H](C)NC(=O)[C@H](C)NC(=O)[C@H](CC(C)C)N(C)C(=O)[C@H](C(C)C)NC(=O)[C@H](CC(C)C)N(C)C(=O)CN(C)C1=O.O=C(O)C(F)(F)F`: in data set [1], the logD hydrocarbon water at 0.5 h, 10 µM is 0.13. Also, the Papp at 2 h, 10 µM in data set [2] was 0.07 ×10⁻⁶ cm/s.
For the compound `CCCC[C@@H]1NC(=O)[C@H](CC(C)C)N(C)C(=O)[C@H](CC(C)C)N(C)C(=O)[C@@H](C)NC(=O)[C@H](C)NC(=O)[C@H](CC(C)C)N(C)C(=O)[C@H](C(C)C)NC(=O)[C@H](CC(C)C)N(C)C(=O)CN(C)C(=O)[C@H](CCC)NC(=O)[C@H]([C@@H](C)O)N(C)C1=O`, the logD hydrocarbon water at 0.5 h, 10 µM in data set [1] amounted to 2.59. For the same compound, in data set [2], the Papp at 2 h, 10 µM was 3 ×10⁻⁶ cm/s. Besides, the Papp at 18 h, 10 µM in data set [3] turned out to be 5.2 ×10⁻⁶ cm/s.
In data set [1], `CCC[C@@H]1NC(=O)[C@H]([C@@H](C)O)N(C)C(=O)[C@H]([C@@H](C)CC)NC(=O)[C@H](CC(C)C)N(C)C(=O)[C@H](CC(C)C)N(C)C(=O)[C@@H](C)NC(=O)[C@H](C)NC(=O)[C@H](CC(C)C)N(C)C(=O)[C@H](C(C)C)NC(=O)[C@H](CC(C)C)N(C)C(=O)CN(C)C1=O` showed a logD hydrocarbon water at 0.5 h, 10 µM of 2.58. In addition, the Papp at 2 h, 10 µM in data set [2] is 2.2 ×10⁻⁶ cm/s. In data set [3], the Papp at 18 h, 10 µM was 7.5 ×10⁻⁶ cm/s.
In the same order, the values of `CCC[C@@H]1NC(=O)[C@H]([C@@H](C)O)N(C)C(=O)[C@H](C(C)C)N(C)C(=O)[C@H](CC(C)C)N(C)C(=O)[C@H](CC(C)C)N(C)C(=O)[C@@H](C)NC(=O)[C@H](C)NC(=O)[C@H](CC(C)C)N(C)C(=O)[C@H](C(C)C)NC(=O)[C@H](CC(C)C)N(C)C(=O)CN(C)C1=O` are 2.12, 3 ×10⁻⁶ cm/s and 6.6 ×10⁻⁶ cm/s.
As for `CCC[C@@H]1NC(=O)[C@H]([C@H](O)C(C)C)N(C)C(=O)[C@H](C(C)C)NC(=O)[C@H](CC(C)C)N(C)C(=O)[C@H](CC(C)C)N(C)C(=O)[C@@H](C)NC(=O)[C@H](C)NC(=O)[C@H](CC(C)C)N(C)C(=O)[C@H](C(C)C)NC(=O)[C@H](CC(C)C)N(C)C(=O)CN(C)C1=O`, the logD hydrocarbon water at 0.5 h, 10 µM in data set [1] was determined as 4.6. The Papp at 2 h, 10 µM in data set [2] came out at 6.8 ×10⁻⁶ cm/s.
Regarding `CCC[C@@H]1NC(=O)[C@H](CC(C)C)N(C)C(=O)[C@H](C(C)C)N(C)C(=O)[C@H](CC(C)C)N(C)C(=O)[C@H](CC(C)C)N(C)C(=O)[C@@H](C)NC(=O)[C@H](C)NC(=O)[C@H](CC(C)C)N(C)C(=O)[C@H](C(C)C)NC(=O)[C@H](CC(C)C)N(C)C(=O)CN(C)C1=O` (cyclo(A[dA][NMeL][NMeL][NMeV][NMeL][Nva][Sar][NMeL]V[NMeL])), the logD hydrocarbon water at 0.5 h, 10 µM in data set [1] amounted to 4.93. For the same compound, the Papp at 2 h, 10 µM in data set [2] stood at 4.1 ×10⁻⁶ cm/s. For the same compound, the Papp at 18 h, 10 µM in data set [3] is 0.6 ×10⁻⁶ cm/s.
In turn, `NC(=O)N1c2ccccc2C=Cc2ccccc21` [CARBAMAZEPINE] had a logD hydrocarbon water at 0.5 h, 10 µM in data set [1] of 0.13. In addition, the Papp at 18 h, 10 µM in data set [3] was 9.5 ×10⁻⁶ cm/s.
Turning to `CC(C)NCC(O)COc1cccc2ccccc12` (configuration not stated) [PROPRANOLOL], the Papp at 2 h, 10 µM in data set [2] is 32 ×10⁻⁶ cm/s.
